Earlier results on one molecule are cited in US5846971A, “Oral antifungal composition” (Schering Corporation, priority 1997, dated 1998).

The test system of data set [1] is Candida. As to conditions: in suspensions.
The test system of data set [2] is Cryptococcus. The settings on record: in suspensions.
Data set [3] concerns Aspergillis. As to conditions: in suspensions.

As for `CC[C@@H]([C@H](C)O)n1ncn(-c2ccc(N3CCN(c4ccc(OC[C@@H]5CO[C@@](Cn6cncn6)(c6ccc(F)cc6F)C5)cc4)CC3)cc2)c1=O` [the antifungal compound, (-)-(2R-cis)-4-[4-[4-[4-[[-5-(2,4-difluorophenyl)-tetrahydro-5-(1H-1,2,4-triazol-1-ylmethyl)furan-3-yl]methoxy]phenyl]-1-piperazinyl]phenyl]-2,-4-dihydro-2-[(S)-1-ethyl-2(S)-hydroxypropyl]-3H-1,2,4-triazol-3-one], the water solubility result was “extremely low water solubility”. For the same molecule, in data set [1], the antifungal activity result was “potent antifungal activity”. The antifungal activity result in data set [2] is given as “potent antifungal activity”. Moreover, the antifungal activity result in data set [3] was “potent antifungal activity”.
